Source: patent US20260116921A1, “PEPTIDE INHIBITORS OF INTERLEUKIN-23 RECEPTOR AND THEIR USE TO TREAT INFLAMMATORY DISEASES” (priority 2018, published 2026)
Read-outs that look alike come from different tables or passages of the source. Bridge positions count the residues as written; N and C are the ends. Square brackets hold non-standard residues; d marks the D form. Peptide text beside a SMILES is read from it. Trp(7-Me) = Cc1cccc2c(C[C@H](N)C(=O)O)c[nH]c12; 2Nal = N[C@@H](Cc1ccc2ccccc2c1)C(=O)O; AEF = NCCOc1ccc(C[C@H](N)C(=O)O)cc1; Cit = NC(=O)NCCC[C@H](N)C(=O)O; Pen = CC(C)(S)[C@H](N)C(=O)O; αMeK = C[C@](N)(CCCCN)C(=O)O; Aib = CC(C)(N)C(=O)O

Biological target: T1, IL-23R (Homo sapiens, UniProt Q5VWK5)
T1 sequence (Q5VWK5 24-629): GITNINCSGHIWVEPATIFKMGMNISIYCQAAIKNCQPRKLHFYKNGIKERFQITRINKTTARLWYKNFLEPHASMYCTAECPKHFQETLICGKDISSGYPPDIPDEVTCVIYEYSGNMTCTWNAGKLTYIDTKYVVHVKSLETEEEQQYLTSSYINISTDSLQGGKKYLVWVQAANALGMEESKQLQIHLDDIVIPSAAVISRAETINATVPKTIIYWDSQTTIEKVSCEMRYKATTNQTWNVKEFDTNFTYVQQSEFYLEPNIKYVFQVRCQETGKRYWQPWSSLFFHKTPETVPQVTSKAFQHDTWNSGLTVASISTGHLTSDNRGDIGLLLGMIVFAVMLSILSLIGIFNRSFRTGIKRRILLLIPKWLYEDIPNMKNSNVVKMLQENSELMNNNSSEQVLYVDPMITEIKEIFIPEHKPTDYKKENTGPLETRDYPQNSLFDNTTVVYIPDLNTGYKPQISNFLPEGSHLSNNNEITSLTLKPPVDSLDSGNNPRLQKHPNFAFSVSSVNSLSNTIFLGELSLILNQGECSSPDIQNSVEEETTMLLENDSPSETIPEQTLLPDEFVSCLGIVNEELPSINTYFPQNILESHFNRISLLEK
Assay: DB cells IL23R pSTAT3 cell assay (pStat3 HTRF)
Format: cell-based
Source text: Human ELISA indicates the IL23-IL23R competitive binding assay described below, Rat ELISA indicates the rat IL-23R competitive binding ELISA assay described below, and pStat3HTRF indicates the DB cells IL-23R pSTAT3 cell assay described below. The peptides depicted in Table E1 are cyclized via a disulfide bridge formed between two Pen residues in these peptides. The peptides depicted in Table E2 are cyclized via a thioether bond between the indicated amino acid residues. Table E2 provides an illustrative structure depicting thioether cyclization, which is indicated in the table by the term “cyclo,” with the cyclic region bracketed immediately following the term “cyclo.” For certain peptides, the residue Abu is present where indicated, whereas in other embodiments, e.g., those related to the non-cyclized form, the Abu may be referred to as a hSer(Cl) or homoSer residue.
DB Cells IL23R pSTAT3 Cell Assay
IL-23 plays a central role in supporting and maintaining Th17 differentiation in vivo. This process is thought to be mediated primarily through the Signal Transducer and Activator of Transcription 3 (STAT3), with phosphorylation of STAT3 (to yield pSTAT3) leading to upregulation of RORC and pro-inflammatory IL-17. This cell assay examines the levels of pSTAT3 in IL-23R-expressing DB cells when stimulated with IL-23 in the presence of test compounds. Serial dilutions of test peptides and IL-23 (Humanzyme #HZ-1261) at a final concentration of 0.5 nM, were added to each well in a 96 well tissue culture plate (Corning #CLS3894). DB cells (ATCC #CRL-2289), cultured in RPMI-1640 medium (Thermo Scientific #11875093) supplemented with 10% FBS, were added at 5×10E5 cells/well and incubated for 30 minutes at 37° C. in a 5% CO2 humidified incubator. Changes in phospho-STAT3 levels in the cell lysates were detected using the Cisbio HTRF pSTAT3 (Tyr705) Cellular Assay Kit (Cisbio #62AT3PEH), according to manufacturer's Two Plate Assay protocol.

[1] = Table E3, DB cells, IL-23 0.5 nM, 30 minutes at 37° C., read-out: pStat3 HTRF (IC50)

IC50 [1]	Compound	IC50
–	CC(=O)NCCCC[C@H](NC(=O)[C@](C)(CC(C)C)NC(=O)[C@H](Cc1c[nH]c2cc(C)ccc12)NC(=O)[C@H](Cc1ccc(OCCN)cc1)NC(=O)[C@H]1NC(=O)[C@H](CCC(N)=O)NC(=O)[C@H](Cc2c[nH]c3ccccc23)NC(=O)[C@H]([C@@H](C)O)NC(=O)[C@H](CC(N)=O)NC(=O)[C@@H](NC(C)=O)C(C)(C)SSC1(C)C)C(=O)N[C@@H](CC(N)=O)C(=O)N[C@@H](CC(N)=O)C(N)=O [compound 16]	0.001 to 0.01 µM
–	CC(=O)NCCCC[C@H](NC(=O)[C@](C)(CC(C)C)NC(=O)[C@H](Cc1c[nH]c2c(F)cccc12)NC(=O)[C@H](Cc1ccc(OCCN)cc1)NC(=O)[C@H]1NC(=O)[C@H](CCC(N)=O)NC(=O)[C@H](Cc2c[nH]c3ccccc23)NC(=O)[C@H]([C@@H](C)O)NC(=O)[C@H](CC(N)=O)NC(=O)[C@@H](NC(C)=O)C(C)(C)SSC1(C)C)C(=O)N[C@@H](CC(N)=O)C(=O)N[C@@H](CC(N)=O)C(N)=O [compound 19]	0.01 to 0.1 µM
–	CC(=O)NCCCC[C@H](NC(=O)[C@](C)(CC(C)C)NC(=O)[C@H](Cc1ccc2ccccc2c1)NC(=O)[C@H](Cc1ccc(OCCN)cc1)NC(=O)[C@H]1NC(=O)[C@H](CCC(N)=O)NC(=O)[C@H](Cc2c[nH]c3cc(F)ccc23)NC(=O)[C@H]([C@@H](C)O)NC(=O)[C@H](CC(N)=O)NC(=O)[C@@H](NC(C)=O)C(C)(C)SSC1(C)C)C(=O)N[C@@H](CC(N)=O)C(=O)N[C@@H](CC(N)=O)C(N)=O [compound 3]	0.01 to 0.1 µM
–	CCCCCCCC(=O)NCCCC[C@@H]1NC(=O)[C@H](Cc2c[nH]c3c(C)cccc23)NC(=O)[C@H]([C@@H](C)O)NC(=O)[C@H](CC(N)=O)NC(=O)[C@@H](NC(C)=O)C(C)(C)SSC(C)(C)[C@@H](C(=O)N[C@@H](Cc2ccc(OCCN)cc2)C(=O)N[C@@H](Cc2ccc3ccccc3c2)C(=O)N[C@@](C)(CCCCN)C(=O)N[C@@H](CCCCNC(C)=O)C(=O)N[C@@H](CC(N)=O)C(=O)N[C@H](CC(C)C)C(N)=O)NC1=O [compound 317]	0.001 to 0.01 µM
–	CC(=O)NCCCC[C@@H]1NC(=O)[C@H](Cc2c[nH]c3c(C)cccc23)NC(=O)[C@H]([C@@H](C)O)NC(=O)[C@H](CC(N)=O)NC(=O)[C@@H](NC(C)=O)C(C)(C)SSC(C)(C)[C@@H](C(=O)N[C@@H](Cc2ccc(OCCN)cc2)C(=O)N[C@@H](Cc2ccc3ccccc3c2)C(=O)N[C@@](C)(CCCCN)C(=O)N[C@@H](CCCCNC(C)=O)C(=O)N[C@@H](CO)C(=O)N[C@H](CCCCN)C(N)=O)NC1=O [compound 352]	0.001 to 0.01 µM
< 0.001 µM	CC(=O)NCCCC[C@H](NC(=O)[C@](C)(CCCCN)NC(=O)[C@H](Cc1ccc2ccccc2c1)NC(=O)[C@H](Cc1ccc(OCCN)cc1)NC(=O)[C@H]1NC(=O)[C@H](CCCCNC(=O)CC(F)(F)F)NC(=O)[C@H](Cc2c[nH]c3c(C)cccc23)NC(=O)[C@H]([C@@H](C)O)NC(=O)[C@H](CC(N)=O)NC(=O)[C@@H](NC(C)=O)C(C)(C)SSC1(C)C)C(=O)N[C@@H](CC(N)=O)C(=O)N[C@H](CC(C)C)C(N)=O [compound 319]	–
< 0.001 µM	CC(=O)NCCCC[C@H](NC(=O)[C@](C)(CCCCN)NC(=O)[C@H](Cc1ccc2ccccc2c1)NC(=O)[C@H](Cc1ccc(OCCN)cc1)NC(=O)[C@H]1NC(=O)[C@H](CCCNC(N)=O)NC(=O)[C@H](Cc2c[nH]c3c(C)cccc23)NC(=O)[C@H]([C@@H](C)O)NC(=O)[C@H](CC(N)=O)NC(=O)[C@@H](NC(C)=O)C(C)(C)SSC1(C)C)C(=O)N[C@@H](CC(N)=O)C(=O)NC(C)(C)C(=O)NCC(N)=O [compound 341] (Ac-[Pen]NT[Trp(7-Me)][Cit][Pen][AEF][2Nal][αMeK]K(Ac)N[Aib]G-NH2; disulfide 1-6)	–
